According to the Deep4Chem optical property database:

Assay: photoluminescence quantum yield (fraction); solvent given as SMILES
[1] = in c1cc(-n2c3ccccc3c3ccccc32)cc(-n2c3ccccc3c3ccccc32)c1

Compound: CC1(C)Cc2c(c3ccccc3c3nc4c(nc23)c2c(c3ccccc34)OC(C)(C)C2)O1
- photoluminescence quantum yield (in C1CCCCC1): 0.43
- photoluminescence quantum yield (in C1COCCO1): 0.53
- photoluminescence quantum yield (in CC#N): 0.39
- photoluminescence quantum yield (in CC(C)O): 0.57
- photoluminescence quantum yield (in CCCCCC): 0.4
- photoluminescence quantum yield (in ClC(Cl)Cl): 0.43
- photoluminescence quantum yield (in c1ccccc1): 0.39

Compound: CCCCC(CC)Cn1c2cc(-c3ccc(N(c4ccccc4)c4ccccc4)cc3)c(C#N)cc2c2cc(C#N)c(-c3ccc(N(c4ccccc4)c4ccccc4)cc3)cc21 (stereo not given)
- photoluminescence quantum yield (in ClCCl): 0.8

Compound: C(=C\c1c[nH]c2ccc(Oc3ccccc3)cc12)/C1=[NH+]c2cccc3cccc1c23
- photoluminescence quantum yield (in CO): 0.0644

Compound: CCN1c2ccc(-c3cc(C(F)(F)F)[nH]n3)cc2Sc2cc(-c3cc(C(F)(F)F)[nH]n3)ccc21
- photoluminescence quantum yield (in C1CCOC1): 0.46
- photoluminescence quantum yield (in CC#N): 0.46
- photoluminescence quantum yield (in CN(C)C=O): 0.75
- photoluminescence quantum yield (in ClCCl): 0.56
- photoluminescence quantum yield (in c1ccccc1): 0.49

Compound: COc1ccc(N(c2ccc(/C=C(\C)c3ccccc3)cc2)c2ccc(OC)cc2)cc1
- photoluminescence quantum yield (in Cc1ccccc1): 0.41

Compound: CCC1(CC)c2ccccc2-c2c1c1c(c3c2C(CC)(CC)c2cc(/C=C/c4cccs4)ccc2-3)C(CC)(CC)c2cc(/C=C/c3cccs3)ccc2-1
- photoluminescence quantum yield (in C1CCOC1): 0.16

Compound: CCCN1c2ccccc2Sc2cc(/C=C\c3cc(=O)oc4ccccc34)ccc21
- photoluminescence quantum yield (in ClC(Cl)Cl): 0.5

Compound: CC(C)(C)C1CCC(=CS/C=C/c2ccc(-c3ccc(/C=C/SC=C4CCC(C(C)(C)C)CC4)cc3)cc2)CC1 (stereo not given)
- photoluminescence quantum yield (in ClCCl): 0.233

Compound: c1cnc(-c2c3ccccc3c(-c3cncnc3)c3ccccc23)nc1
- photoluminescence quantum yield (in CCO): 0.61
- photoluminescence quantum yield (in ClCCl): 0.78

Compound: COc1cc2c(cc1OC)C1=C[C@H](c3ccc(C)cc3)C3(C(C#N)=C(C#N)N1CC2)c1cc(Br)ccc1-c1ccc(Br)cc13
- photoluminescence quantum yield (in ClCCl): 0.00023

Compound: FC(F)(F)c1cc2n(n1)[B-](c1ccccc1)(c1ccccc1)[n+]1ccc3ccccc3c1-2
- photoluminescence quantum yield (in C1CCCCC1): 0.999
- photoluminescence quantum yield (in Cc1ccccc1): 0.712
- photoluminescence quantum yield (in ClCCl): 0.778

Compound: C/C=C/c1ccc(OC)cc1
- photoluminescence quantum yield (in CC#N): 0.27
- photoluminescence quantum yield (in CCCCCC): 0.35

Compound: CCCCCCCCc1ccc(-n2c3c4ccccc4nc(-c4ccc(C#N)cc4)c3c3c2c2c(-c4ccc(C#N)cc4)nc4ccccc4c2n3-c2ccc(CCCCCCCC)cc2)cc1
- photoluminescence quantum yield (in ClC(Cl)Cl): 0.14

Compound: COc1ccc(-n2nc(C#N)c(N3CCN(c4ccccn4)CC3)n2)cc1
- photoluminescence quantum yield (in CC#N): 0.064

Compound: COc1ccc(O)c(-c2nc(C)c3n2CCCC3)c1
- photoluminescence quantum yield (in ClCCl): 0.11

Compound: CCN(CC)c1ccc(/C=N/c2cc3nc4ccccc4nc3cc2/N=C/c2ccc(N(CC)CC)cc2O)c(O)c1
- photoluminescence quantum yield (in CC#N): 0.21

Compound: c1ccc2c(-n3c4ccccc4c4ccccc43)cccc2c1
- photoluminescence quantum yield (in C1CCCCC1): 0.54
- photoluminescence quantum yield (in CCOC(C)=O): 0.51
- photoluminescence quantum yield (in CO): 0.36

Compound: C[Si](C)(C)c1cc2c(cc3ccc4cccc5ccc2c3c45)[nH]1
- photoluminescence quantum yield (in CCOC(C)=O): 0.95

Compound: CN(C)c1ccc(-c2ccc(-c3cc(N4CCCCC4)c(C#N)c4c3-c3ccccc3CC4)cc2)cc1
- photoluminescence quantum yield (in C1CCOC1): 0.68

Compound: CN(C)c1ccc(/C=C/c2cc(/C=C/c3ccc(N(C)C)cc3)ncn2)cc1
- photoluminescence quantum yield (in ClCCl): 0.4

Compound: CCC1(CC)c2cc(B(c3c(C)cc(C)cc3C)c3c(C)cc(C)cc3C)ccc2-c2c1c1c(c3c2C(CC)(CC)c2cc(N(c4ccccc4)c4ccccc4)ccc2-3)C(CC)(CC)c2cc(B(c3c(C)cc(C)cc3C)c3c(C)cc(C)cc3C)ccc2-1
- photoluminescence quantum yield (in C1CCOC1): 0.2

Compound: COc1ccc(C2=C(C)C3=C(c4c(-c5ccccn5)nc5ccccn45)c4c(C)cc(C)n4[B-](F)(F)[N+]3=C2C)cc1
- photoluminescence quantum yield (in ClCCl): 0.212

Compound: Fc1ccccc1-c1c2cc(Cl)ccc2nc2cc3ccccc3cc12
- photoluminescence quantum yield (in ClCCl): 0.46

Compound: CCCN1c2ccccc2Sc2cc(/C=C\c3cc(=O)oc4ccc(C)cc34)ccc21
- photoluminescence quantum yield (in ClC(Cl)Cl): 0.76

Compound: CCn1c2ccccc2c2cc(C#Cc3cc(C#Cc4ccc5c(c4)c4ccccc4n5CC)nc(S(C)(=O)=O)n3)ccc21
- photoluminescence quantum yield (in C1CCOC1): 0.74
- photoluminescence quantum yield (in CCOC(C)=O): 0.75
- photoluminescence quantum yield (in CN(C)C=O): 0.59
- photoluminescence quantum yield (in Cc1ccccc1): 0.81
- photoluminescence quantum yield (in ClCCl): 0.46

Compound: c1cc2ccc3ccc(-n4c5ccccc5c5ccccc54)c4ccc(c1)c2c34
- photoluminescence quantum yield (in CCCCCC): 0.26
- photoluminescence quantum yield (in CCO): 0.38
- photoluminescence quantum yield (in CCOC(C)=O): 0.29
- photoluminescence quantum yield (in ClCCl): 0.44

Compound: COc1ccccc1-c1nc(-c2ccccc2)c2ccccn12
- photoluminescence quantum yield (in CC#N): 0.38
- photoluminescence quantum yield (in ClCCl): 0.385

Compound: O=C([O-])c1ccccc1C1=c2cc3c4c(c2Oc2c1cc1c5c2CCCN5CCC1)CCC[N+]=4CCC3
- photoluminescence quantum yield (in CC#N): 1
- photoluminescence quantum yield (in CCO): 0.98
- photoluminescence quantum yield (in CN(C)C=O): 1
- photoluminescence quantum yield (in CO): 1
- photoluminescence quantum yield (in O): 0.99

Compound: Cc1cc(C)c2nc3[nH]c(=O)[nH]c(=O)c3nc2c1
- photoluminescence quantum yield (in CC#N): 0.043

Compound: CN(C)c1cc(-c2ccc(C#Cc3ccncc3)cc2)cc2ccccc12
- photoluminescence quantum yield (in ClCCl): 0.83

Compound: O=C(c1ccc(N2c3ccccc3Oc3ccccc32)cc1)c1ccc(N2c3ccccc3Oc3ccccc32)cc1
- photoluminescence quantum yield (in Cc1ccccc1): 0.44
- photoluminescence quantum yield [1]: 0.7

Compound: O=c1c2ccccc2n2c3ccccc3c(=O)c3cccc1c32
- photoluminescence quantum yield [1]: 0.724

Compound: CC(C)(C)c1ccc(-c2nnc(-c3c(-n4c5ccccc5c5ccccc54)c(-n4c5ccccc5c5ccccc54)c(-c4nnc(-c5ccc(C(C)(C)C)cc5)o4)c(-n4c5ccccc5c5ccccc54)c3-n3c4ccccc4c4ccccc43)o2)cc1
- photoluminescence quantum yield (in c1cc(-n2c3ccccc3c3ccccc32)nc(-n2c3ccccc3c3ccccc32)c1): 0.89

Compound: COc1ccc(C2=C(c3ccc(OC)cc3)C(c3ccc(OC)cc3)=[N+]3C2=C(c2ccc(OC)cc2)c2c(-c4ccc(OC)cc4)c(-c4ccc(OC)cc4)c(-c4ccc(OC)cc4)n2[B-]3(F)F)cc1
- photoluminescence quantum yield (in C1CCOC1): 0.26

Compound: CC(C)(C)c1ccc2c(c1)c1cc(C(C)(C)C)ccc1n2-c1ccc(C#Cc2ccc(C#Cc3ccc(C=C(C#N)C#N)cc3)cc2)cc1
- photoluminescence quantum yield (in ClCCl): 0.3

Compound: CC(C)CCCN1c2ccccc2CCc2ccccc21
- photoluminescence quantum yield (in CC#N): 0.029
- photoluminescence quantum yield (in CO): 0.021

Compound: O=S(=O)([O-])c1ccc([O-])c2ccccc12
- photoluminescence quantum yield (in O): 0.26

Compound: COc1ccc2c3c(c4ccc(OC)cc4c2c1)C(C)(C)c1c-3ccc2ccccc12
- photoluminescence quantum yield (in C1CCCCC1): 0.26

Compound: CC(C)[Si](C#Cc1ccc(-c2c3cccc4c5cccc6c(-c7ccc(C#C[Si](C(C)C)(C(C)C)C(C)C)cc7)c7cccc8c9cccc2c9c(c34)c(c65)c78)cc1)(C(C)C)C(C)C
- photoluminescence quantum yield (in Cc1ccccc1): 0.38

Compound: F[B-]1(F)OC(c2ccccc2)=Cc2ccc3ccccc3[n+]21
- photoluminescence quantum yield (in ClC(Cl)Cl): 0.53
- photoluminescence quantum yield (in ClCCl): 0.57

Compound: COc1cccc(-[c+]2c3ccccc3oc3ccccc32)c1
- photoluminescence quantum yield (in CC#N): 0.00066

Compound: C(S/C=C/c1ccc(-c2ccc(/C=C/SC=C(c3ccccc3)c3ccccc3)cc2)cc1)=C(c1ccccc1)c1ccccc1
- photoluminescence quantum yield (in ClCCl): 0.143

Compound: CCCCC(CC)CN1C(=O)c2cccc3c(C#Cc4ccc(N(c5ccccc5)c5ccccc5)cc4)ccc(c23)C1=O (stereo not given)
- photoluminescence quantum yield (in C1CCCCC1): 0.66
- photoluminescence quantum yield (in C1CCOC1): 0.62
- photoluminescence quantum yield (in CC#N): 0.026
- photoluminescence quantum yield (in Cc1ccccc1): 0.89
- photoluminescence quantum yield (in ClC(Cl)Cl): 0.51

Compound: Nc1ccc(N2C(=O)c3ccc4c5ccc6c7c(ccc(c8ccc(c3c48)C2=O)c75)C(=O)N(c2ccc(O)cc2)C6=O)cc1
- photoluminescence quantum yield (in CN(C)C=O): 0.95

Compound: CCOC(=O)c1c2c3c(ccc(F)c3c3cc4c(cc13)[Si](C)(C)O[Si]4(C)C)N(C)C2=O
- photoluminescence quantum yield (in CC#N): 0.47

Compound: COc1ccc2cc(/C=C/c3nc(/C=C/c4ccc(N(C)C)cc4)cc(/C=C/c4ccc(N(C)C)cc4)n3)ccc2c1
- photoluminescence quantum yield (in ClCCl): 0.52

Compound: c1ccc(N2c3ccccc3Sc3cc(-c4cccc5nc6ccccc6cc45)ccc32)cc1
- photoluminescence quantum yield (in CC#N): 0.0076
- photoluminescence quantum yield (in CCCCCC): 0.213
- photoluminescence quantum yield (in CCOCC): 0.17
- photoluminescence quantum yield (in ClCCl): 0.0635

Compound: CC1=C(C#Cc2ccc(N(c3ccccc3)c3ccccc3)cc2)C(C)=[N+]2C1=C(c1ccccc1)c1c(C)c(C#Cc3ccc(N(c4ccccc4)c4ccccc4)cc3)c(C)n1[B-]2(F)F
- photoluminescence quantum yield (in C1CCOC1): 0.31

Compound: CCOC(=O)CC[N+]1=c2cc3c(cc2CCC1)=Cc1c(c2ccc(N(C)C)cc2oc1=O)O3
- photoluminescence quantum yield (in CC#N): 0.217
- photoluminescence quantum yield (in CO): 0.152
- photoluminescence quantum yield (in ClCCl): 0.469
- photoluminescence quantum yield (in O): 0.03

Compound: COc1ccc2c(c1)c1cc(OC)ccc1c1c2c2c(C(=O)NC(C)(C)C)ccc(C(=O)NC(C)(C)C)c2c2c3ccc(OC)cc3c3cc(OC)ccc3c21
- photoluminescence quantum yield (in ClCCl): 0.1

Compound: CCCCCOc1cc2oc(=O)c3c4ccc(C#N)cc4c4ccc5cccc6c(c1)c2c3c4c56
- photoluminescence quantum yield (in C1CCOC1): 0.499

Compound: COc1ccc(-c2nc3ccccc3oc2=O)cc1
- photoluminescence quantum yield (in c1ccccc1): 0.076

Compound: Cc1c2ccccc2c(C2=C3C=CC=[N+]3[B-](F)(F)n3cccc32)c2ccccc12
- photoluminescence quantum yield (in CC#N): 0.001
- photoluminescence quantum yield (in CCCCCC): 0.041
- photoluminescence quantum yield (in CCO): 0.002
- photoluminescence quantum yield (in CN(C)C=O): 0.002
- photoluminescence quantum yield (in Cc1ccccc1): 0.007
- photoluminescence quantum yield (in ClCCl): 0.005

Compound: O=P1(c2ccccc2)C(c2ccccc2)=Cc2cc3ccccc3cc21 (stereo not given)
- photoluminescence quantum yield (in ClCCl): 0.37

Compound: CCCn1c(=O)c(/C=C/c2nc3ccc(C)cc3n(CCC)c2=O)nc2ccc(C)cc21
- photoluminescence quantum yield (in C1COCCO1): 0.2
- photoluminescence quantum yield (in CC#N): 0.15
- photoluminescence quantum yield (in ClCCl): 0.21

Compound: CN(C)c1ccc(C#Cc2ccc3ccc4ccc(C#Cc5ccc(N(C)C)cc5)c5ccc2c3c45)cc1
- photoluminescence quantum yield (in CCCCCC): 0.632
- photoluminescence quantum yield (in CO): 0.256
- photoluminescence quantum yield (in ClCCl): 0.534

Compound: CN(C)c1ccc(/C=C/c2nc3cc(Br)ccc3nc2-c2ccccc2)cc1
- photoluminescence quantum yield (in C1COCCO1): 0.14
- photoluminescence quantum yield (in CC#N): 0.01
- photoluminescence quantum yield (in ClCCl): 0.17

Compound: COc1cc2oc(=O)c3c4ccc(C(=O)c5ccccc5)cc4c4ccc5cccc6c(c1)c2c3c4c56
- photoluminescence quantum yield (in C1CCOC1): 0.448

Compound: COc1ccc(-n2c(C)ccc2C)cc1
- photoluminescence quantum yield (in CC#N): 0.026
- photoluminescence quantum yield (in CCCCCC): 0.024

Compound: CCOC(=O)CN1C(=O)C2=C(c3ccccc3)N(CC(=O)OCC)C(=O)C2=C1c1ccccc1
- photoluminescence quantum yield (in CC#N): 0.31
- photoluminescence quantum yield (in CS(C)=O): 0.56
- photoluminescence quantum yield (in Cc1ccccc1): 0.36
